Experimental data taken from patent publication US8673909B2, “Indole compounds and methods for treating visceral pain” (NeurAxon, Inc., priority 2007, dated 2014).
Entries after “also recorded” stand apart in the source; their conditions may differ.

Experiments:
[1] = system: rats with L5/L6 spinal nerve ligation; assay: Chung spinal nerve ligation (SNL) model of neuropathic-like pain; format: in vivo; conditions: rat, 30 mg/kg i.p.
Protocol: (a) Chung Model of Injury-induced Neuropathic-like Pain: The experimental designs for the Chung Spinal Nerve Ligation SNL Model assay for neuropathic pain are depicted in the Figure below. Nerve ligation injury was performed according to the method described by Kim and Chung (Kim and Chung, Pain 50:355-363, 1992). This technique produces signs of neuropathic dysesthesias, including tactile allodynia, thermal hyperalgesia, and guarding of the affected paw. Rats were anesthetized with halothane, and the vertebrae over the L4 to S2 region were exposed. The L5 and L6 spinal nerves were exposed, carefully isolated, and tightly ligated with 4-0 silk suture distal to the DRG. After ensuring homeostatic stability, the wounds were sutured, and the animals allowed to recover in individual cages. Sham-operated rats were prepared in an identical fashion except that the L5/L6 spinal nerves were not ligated. […] After a period of recovery following the surgical intervention, rats show enhanced sensitivity to painful and normally non-painful stimuli.

[2] = target: T1, Nitric oxide synthase (neuronal, human recombinant) nNOS (Homo sapiens, UniProt P29475); assay: nNOS (human) enzyme assay, [3H]-L-arginine to L-citrulline; format: biochemical; conditions: for IC50: Table 10, human nNOS, read-out: nNOSh; for e/n: Table 10, ratio eNOS/nNOS
T1 construct: purchased Axxora LLC ALX-201-068
T1 sequence (P29475 whole entry): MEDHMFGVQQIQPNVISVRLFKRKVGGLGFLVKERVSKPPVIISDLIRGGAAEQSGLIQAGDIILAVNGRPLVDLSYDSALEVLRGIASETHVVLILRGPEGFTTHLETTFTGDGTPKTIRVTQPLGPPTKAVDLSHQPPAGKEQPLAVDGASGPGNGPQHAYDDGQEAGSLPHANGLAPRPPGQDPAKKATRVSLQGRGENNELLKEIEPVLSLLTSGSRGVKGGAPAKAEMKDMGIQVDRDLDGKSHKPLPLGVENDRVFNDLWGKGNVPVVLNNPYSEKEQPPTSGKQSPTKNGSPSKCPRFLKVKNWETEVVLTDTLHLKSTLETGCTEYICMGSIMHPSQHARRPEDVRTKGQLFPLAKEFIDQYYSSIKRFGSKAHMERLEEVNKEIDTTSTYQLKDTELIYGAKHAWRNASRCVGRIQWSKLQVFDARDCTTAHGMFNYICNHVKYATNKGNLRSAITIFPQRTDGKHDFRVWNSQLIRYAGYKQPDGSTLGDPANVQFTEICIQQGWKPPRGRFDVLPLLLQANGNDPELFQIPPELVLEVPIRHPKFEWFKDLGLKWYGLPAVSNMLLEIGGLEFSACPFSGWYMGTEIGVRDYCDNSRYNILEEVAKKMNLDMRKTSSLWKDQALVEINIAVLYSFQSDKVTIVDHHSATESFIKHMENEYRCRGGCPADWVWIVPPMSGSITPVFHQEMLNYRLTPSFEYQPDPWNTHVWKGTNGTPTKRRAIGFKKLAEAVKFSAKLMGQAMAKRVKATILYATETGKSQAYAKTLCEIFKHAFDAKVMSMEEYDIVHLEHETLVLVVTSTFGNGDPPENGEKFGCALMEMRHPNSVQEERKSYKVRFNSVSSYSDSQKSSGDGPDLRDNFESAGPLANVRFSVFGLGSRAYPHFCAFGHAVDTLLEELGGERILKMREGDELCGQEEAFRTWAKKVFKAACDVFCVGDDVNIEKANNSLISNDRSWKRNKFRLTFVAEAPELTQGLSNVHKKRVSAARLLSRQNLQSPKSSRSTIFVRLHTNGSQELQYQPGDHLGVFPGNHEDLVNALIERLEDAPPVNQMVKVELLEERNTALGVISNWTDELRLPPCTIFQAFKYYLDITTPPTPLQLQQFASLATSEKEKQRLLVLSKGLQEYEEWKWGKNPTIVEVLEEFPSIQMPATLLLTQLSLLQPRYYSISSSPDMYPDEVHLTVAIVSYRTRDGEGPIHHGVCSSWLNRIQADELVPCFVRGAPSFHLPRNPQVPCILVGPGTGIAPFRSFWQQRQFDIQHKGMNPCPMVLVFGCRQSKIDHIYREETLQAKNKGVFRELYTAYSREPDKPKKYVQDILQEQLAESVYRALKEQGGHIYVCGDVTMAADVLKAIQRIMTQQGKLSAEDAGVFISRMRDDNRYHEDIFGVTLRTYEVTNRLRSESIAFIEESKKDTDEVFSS

[3] = target: T2, Nitric oxide synthase (endothelial, human recombinant) eNOS (Homo sapiens, UniProt P29474); assay: eNOS (human) enzyme assay, [3H]-L-arginine to L-citrulline; format: biochemical; conditions: Table 10, human eNOS; read-out: eNOSh
T2 construct: purchased Axxora LLC ALX-201-070
T2 sequence (P29474 whole entry): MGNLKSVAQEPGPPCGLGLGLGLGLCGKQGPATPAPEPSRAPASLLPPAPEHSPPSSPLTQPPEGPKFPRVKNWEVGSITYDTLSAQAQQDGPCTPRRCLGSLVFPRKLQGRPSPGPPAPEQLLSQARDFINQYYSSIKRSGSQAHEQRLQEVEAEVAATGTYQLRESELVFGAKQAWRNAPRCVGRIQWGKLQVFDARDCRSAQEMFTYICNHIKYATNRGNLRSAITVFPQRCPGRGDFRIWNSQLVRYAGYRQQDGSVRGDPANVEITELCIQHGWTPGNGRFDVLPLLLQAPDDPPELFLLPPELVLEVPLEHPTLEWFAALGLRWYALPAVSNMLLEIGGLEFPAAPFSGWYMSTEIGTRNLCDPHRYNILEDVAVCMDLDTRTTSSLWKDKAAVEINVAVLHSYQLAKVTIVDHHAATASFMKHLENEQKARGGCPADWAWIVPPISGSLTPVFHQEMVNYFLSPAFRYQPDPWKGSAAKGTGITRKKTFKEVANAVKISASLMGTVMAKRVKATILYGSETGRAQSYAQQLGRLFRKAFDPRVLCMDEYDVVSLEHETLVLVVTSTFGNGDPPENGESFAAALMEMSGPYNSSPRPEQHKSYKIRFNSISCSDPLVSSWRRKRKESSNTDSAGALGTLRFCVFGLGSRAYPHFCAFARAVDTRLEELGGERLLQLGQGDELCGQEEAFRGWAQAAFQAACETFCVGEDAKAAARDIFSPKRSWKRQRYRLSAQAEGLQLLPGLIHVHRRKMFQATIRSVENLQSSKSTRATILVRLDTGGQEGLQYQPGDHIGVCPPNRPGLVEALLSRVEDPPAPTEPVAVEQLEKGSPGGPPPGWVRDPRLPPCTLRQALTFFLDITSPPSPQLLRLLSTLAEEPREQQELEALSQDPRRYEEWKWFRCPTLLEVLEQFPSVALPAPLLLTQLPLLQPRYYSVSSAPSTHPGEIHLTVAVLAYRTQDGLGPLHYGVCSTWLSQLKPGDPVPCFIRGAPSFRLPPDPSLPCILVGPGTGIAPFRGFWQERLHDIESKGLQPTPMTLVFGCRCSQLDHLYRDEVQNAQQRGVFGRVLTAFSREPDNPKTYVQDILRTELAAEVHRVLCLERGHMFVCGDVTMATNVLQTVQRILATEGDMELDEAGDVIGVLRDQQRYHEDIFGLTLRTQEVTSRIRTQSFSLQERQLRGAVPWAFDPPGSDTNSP

5-HT1B = target: T3, 5-HT1B (Rattus norvegicus, UniProt P28564); assay: 5-HT1B binding assay (agonist radioligand), rat cerebral cortex; conditions: Table 11, rat 1B receptor binding
T3 construct: from tissue; host or cells: rat cerebral cortex
T3 sequence (P28564 whole entry): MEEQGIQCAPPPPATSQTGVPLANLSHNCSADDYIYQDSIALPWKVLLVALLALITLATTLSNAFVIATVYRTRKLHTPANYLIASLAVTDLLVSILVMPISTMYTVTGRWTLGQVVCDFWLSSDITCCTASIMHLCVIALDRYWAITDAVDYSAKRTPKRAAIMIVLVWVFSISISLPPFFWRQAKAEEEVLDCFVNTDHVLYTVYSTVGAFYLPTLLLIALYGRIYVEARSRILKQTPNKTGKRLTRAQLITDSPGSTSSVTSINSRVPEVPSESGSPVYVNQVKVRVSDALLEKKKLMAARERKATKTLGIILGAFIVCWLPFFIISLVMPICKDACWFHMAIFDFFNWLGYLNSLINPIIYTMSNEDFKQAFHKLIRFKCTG
Protocol: 5-HT1D binding assays (agonist radioligand) were performed using bovine caudate membranes according to the methods of Heuring and Peroutka (J. Neurosci., 7: 894-903 (1987)). 5-HT1B (rat cerebral cortex) binding assays (agonist radioligand) were performed according to the method of Hoyer et. al. (Eur. J. Pharmacol., 118: 1-12 (1995)). For the purpose of result analysis, the specific ligand binding to the receptors is defined as the difference between the total binding and the nonspecific binding as determined in the presence of an excess of unlabelled ligand. The results are expressed as a percent of control specific binding obtained in the presence of the test compounds. IC50 values (concentration causing a half-maximal inhibition of control specific binding) and Hill coefficients (nH) were determined by non-linear regression analysis of the competition curves using Hill equation curve fitting and the inhibition constants (Ki) were calculated from the Cheng Prusoff equation (Ki=IC50/(1+(L/KD)), where L=concentration of radioligand in the assay, and KD=affinity of the radioligand for the receptor).

[4] = system: rats with experimental pancreatitis; assay: Pancreatitis visceral pain model (DBTC), referred abdominal hypersensitivity, von Frey; format: in vivo, rat
Protocol: Adult male Sprague Dawley rats (Harlan, Indianapolis, Ind.), weighing 150-200 g were maintained in a climate-controlled room with ad lib food and water on a 12-h light/dark cycle (lights on at 07:00 hours). All procedures followed the policies of the International Association for the Study of Pain and the NIH guidelines for the handling and use of laboratory animals. Studies were approved by the University of Arizona IACUC.
Pancreatitis was produced by a tail vein injection of dibutyltin dichloride (DBTC, Aldrich, Milwaukee, Wis., 0.25 cc) dissolved in 100% ethanol at a dose of 8 mg/kg under isofluorane anesthesia (2-3 liters/min, 4.0%/vol until anesthetized, then 2.5%/vol throughout the procedure) (Vera-Portocarrero et al., 2006). Control animals were injected with the vehicle solution only (100% ethanol, 0.25 cc).
Referred abdominal hypersensitivity in the pancreatitis model was quantified by measuring the number of withdrawals events evoked by application of a calibrated von Frey filament (determined by either abdominal withdrawal, licking of the abdominal area, or whole body withdrawal). Rats were placed inside Plexiglas boxes on an elevated fine fiberglass screen mesh and acclimated for 30 minutes before testing. A 4 g von Frey filament was applied from underneath through the mesh floor, to the abdominal area at different points on the surface. […] The mean occurrence of withdrawal events in each trial is expressed as the number of responses to 10 applications as previously described (Vera-Portocarrero et al., 2003).
Significant differences between each experimental group for the behavioral test across time were detected by a two-factor ANOVA follow by the Fishers Least Significance Difference post-hoc test. One-factor ANOVA was used to detect significant differences in behavioral outcomes within each experimental group over time. A linear regression analysis was used to detect the dose-dependency of the effects. Significance was established at the p<0.05 level.

[5] = target: Recombinant human inducible NOS (iNOS) (Homo sapiens, UniProt P35228); assay: Human iNOS assay, radiometric; format: biochemical; conditions: Table 10, human iNOS; read-out: iNOSh
Protocol: Recombinant human inducible NOS (iNOS) was produced in Baculovirus-infected Sf9 cells (ALEXIS). […] 15 μL of test substances are added to the mixture with the specific enzyme and pre-incubated at RT for 15 min. • 2. […] The incubation is carried out at 37° C. for 45 min. • 4. […] An aliquot 70 μL of the supernatant is added to 100 μL scintillation fluid. • 8.
The total volume of the reaction mixture is 150 μL in every well. All assays are performed at least in duplicate. Standard deviations are 10% or less.

5-HT1D = 5-HT1D (Bos taurus, UniProt F1MMU1); assay: 5-HT1D binding assay (agonist radioligand), bovine caudate membranes; conditions: Table 11, bovine 1D receptor binding; read-out: 5HT1D
Chain of 5-HT1D (F1MMU1 1-377): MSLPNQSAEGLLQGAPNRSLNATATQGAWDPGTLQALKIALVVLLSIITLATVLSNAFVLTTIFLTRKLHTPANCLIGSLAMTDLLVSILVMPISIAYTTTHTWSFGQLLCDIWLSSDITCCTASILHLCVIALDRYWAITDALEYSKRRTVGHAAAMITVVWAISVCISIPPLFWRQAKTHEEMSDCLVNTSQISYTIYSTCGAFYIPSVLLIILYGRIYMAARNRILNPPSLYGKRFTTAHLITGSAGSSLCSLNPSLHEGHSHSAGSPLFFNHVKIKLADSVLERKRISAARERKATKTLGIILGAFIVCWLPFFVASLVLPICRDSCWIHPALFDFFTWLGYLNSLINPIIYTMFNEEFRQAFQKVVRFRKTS
Protocol: 5-HT1D binding assays (agonist radioligand) were performed using bovine caudate membranes according to the methods of Heuring and Peroutka (J. Neurosci., 7: 894-903 (1987)). 5-HT1B (rat cerebral cortex) binding assays (agonist radioligand) were performed according to the method of Hoyer et. al. (Eur. J. Pharmacol., 118: 1-12 (1995)). For the purpose of result analysis, the specific ligand binding to the receptors is defined as the difference between the total binding and the nonspecific binding as determined in the presence of an excess of unlabelled ligand. The results are expressed as a percent of control specific binding obtained in the presence of the test compounds.

IC50 [2] [µM] | e/n [2] | IC50 [3] [µM] | IC50 (5-HT1B) [µM] | IC50 [5] [µM] | IC50 (5-HT1D) [µM] | Compound | reversal of tactile hyperthesia [1] | reversal of thermal hyperalgesia (antihyperalgesic effect) [1] | reversal of tactile allodynia in pancreatitis visceral pain model [4]
0.68 | 67 | 45.5 | 1.4 | 25 | 0.17 | CN1CCC(c2c[nH]c3ccc(NC(=N)c4cccs4)cc23)C1 (single isomer, unassigned) [Compound 6a, N-(3-(1-Methylpyrrolidin-3-yl)-1H-indol-5-yl)thiophene-2-carboximidamide] | not | only weakly | does not reverse tactile allodynia
0.205 | 100 | 20.6 | 0.705 | 20 | 0.079 | CN1CCC(c2c[nH]c3ccc(NC(=N)c4cccs4)cc23)C1 (single isomer, unassigned) [Compound 6b, N-(3-(1-Methylpyrrolidin-3-yl)-1H-indol-5-yl)thiophene-2-carboximidamide] | reversal of tactile hyperthesia | reversal of thermal hyperalgesia; also recorded: clear antihyperalgesic effect | reverse the tactile allodynia
